Laboratory results: ChEMBL document CHEMBL2321745, “Synthesis and biological evaluation of substituted benzoxazoles as inhibitors of mPGES-1: use of a conformation-based hypothesis to facilitate compound design” (Bioorg Med Chem Lett, 2013)

Assays:
[1] = Oral bioavailability in Sprague-Dawley rat at 1 mg/kg; assay type: ADME, organism-based; settings: in vivo
[2] = Apparent intrinsic clearance in human liver microsomes; assay type: ADME, Microsome; settings: read-out: CLH(app)
[3] = Mean residence time in Sprague-Dawley rat at 1 mg/kg, po; assay type: ADME, organism-based; design: dose 1 mg/kg, route oral; settings: in vivo
[4] = Clearance in Sprague-Dawley rat at 1 mg/kg, iv; assay type: ADME, organism-based; design: dose 1 mg/kg, route intravenous; settings: in vivo
[5] = Half life in Sprague-Dawley rat at 1 mg/kg, po; assay type: ADME, organism-based; design: dose 1 mg/kg, route oral; settings: in vivo
[6] = Volume of distribution at steady state in Sprague-Dawley rat at 1 mg/kg, iv; assay type: ADME, organism-based; design: dose 1 mg/kg, route intravenous; settings: in vivo, read-out: Vdss
[7] = AUC (infinity) in Sprague-Dawley rat at 1 mg/kg, po; assay type: ADME, organism-based; design: time infinity, dose 1 mg/kg, route oral; settings: plasma
[8] = Cmax in Sprague-Dawley rat at 1 mg/kg, po; assay type: ADME, organism-based; design: dose 1 mg/kg, route oral; settings: in vivo

bioavailability [1] [%]	CLint scaled [2] [mL/min/kg]	MRT [3] [h]	clearance [4] [mL/min/kg]	half-life [5] [h]	Vd [6] [L/kg]	AUC(0-inf) [7] [µM·h]	Cmax [8] [nM]	SMILES
15	223	0.78	44	0.54	2			Cc1cc2oc(N3CCC(C(=O)N[C@H]4CCC[C@H](C(C)(C)O)C4)CC3)nc2cc1Cl
38	98	3.6	30	5.4	4.6	0.45	120	CC(C)(O)[C@H]1CCC[C@H](NC(=O)C2CCN(c3nc4cc(Cl)c(C(F)(F)F)cc4o3)CC2)C1
30	4.6	6.5	9.4	17	2.1	1.1	150	CS(=O)(=O)[C@H]1CCC[C@H](NC(=O)C2CCN(c3nc4cc(Cl)c(C(F)(F)F)cc4o3)CC2)C1
42		6.8			2.9	1.9	200	O=C(N[C@H]1CCC[C@H](CO)C1)C1CCN(c2nc3cc(Cl)c(-c4ccc(Cl)cc4)cc3o2)CC1
